“And” between values parts separate entries of the source, which are not always exact repeats. Equal values may be shown once. Read-outs that look alike come from different tables or passages of the source.
Tests used:
[1] = test system: CLL cells; assay: Annexin-V death assay of freshly isolated primary CLL cells; type: cell-based, human; settings: 48 hours
Description: (§1) Cells were stained with fluorescent conjugates of Annexin-V (BioVision) and propidium iodide (PI) and analyzed on a FACSCalibur machine (Becton-Dickinson).
(§2) 15 ml of blood in heparin treated tubes was obtained from each anonymous CLL patient and processed without freezing. Equal volume of media (RPMI medium, 10% […], supplemented with […] and 10 mg/ml transferrin) was mixed with each sample and CLL cells isolated by centrifugation through Ficoll-PAQUE Plus (Amersham). Cells were washed twice in media and cultured at a density of 2.0×10^6 cells/ml for up to 48 hours. Samples for FIG. 11A were obtained from 24 consecutive patients identified with WBC >50,000/μl. All guidelines and regulations were followed in accordance with IRB protocols #99-224 (Dana-Farber Cancer Institute). Normal PBMC's were obtained from tubing discarded following platelet donation by anonymous normal donors and processed as above, except cultured without insulin and transferrin.
Experimental replicates were performed using lysates or mitochondria from different CLL samples. In main body, where a P value is given, it was obtained by using a two-tailed Students t-test, and P<0.05 was considered statistically significant. GraphPad Prism software was used to determine EC50 values by non-linear dose-response curve fitting and to perform Mann-Whitney nonparametric testing in Table 5.
Freshly isolated primary CLL cells were incubated with ABT-737 or negative control enantiomer. After 48 hours, death was assessed using Annexin-V staining.

[2] = test system: peripheral blood mononuclear cells (PBMC); assay: Annexin-V death assay of normal PBMC; type: cell-based; settings: Homo sapiens, 24 hours, read-out: EC50, PBMC from normal donors
Description: as §1, §2
CLL cells have shown sensitivity to ABT-737, so they were selected as a possible initial cancer model of BCL-2 dependence (Oltersdorf et al., 2005). Freshly isolated primary CLL cells were incubated with ABT-737 or negative control enantiomer. After 48 hours, death was assessed using Annexin-V staining. […] Directly targeting the apoptotic machinery might be expected to induce apoptosis rapidly.

[3] = test system: FL5.12 cells; assay: FL5.12 cell survival by Annexin V; type: cell-based, murine
Description: as §1
FL5.12 cells were cultured as described previously in Iscove's modified Dulbecco's medium, 10% fetal bovine serum, 1000 ug/ml G418 with or without IL-3 provided by 10% WEHI-3B supplement (supernatant of IL-3 secreting WEHI-3B cells). FL5.12 cells were stably transfected with a vector containing a neomycin resistance construct and either human BCL-2 cDNA (FL5.12-BCL-2) or no insert (wt). 2B4 cells were cultured in RPMI 1640 supplemented with 10% fetal bovine serum, 100 U/ml penicillin, 100 ug/ml streptomycin, 10 uM non-essential amino acids and 8 ul/L betamercaptoethanol. Stably transfected 2B4 cells were isolated after transfection with pLZR-GFP retroviral vector or vector with Flag-Mc1-1 (kind gift from Joe Opferman).
In order to test whether mitochondrial dependence on individual antiapoptotic protein function can be correlated with cellular behavior, cellular models of defined antiapoptotic dependence were investigated. First, it was determined if cellular requirement for BCL-2 for cellular survival correlates with the BCL-2 signature of mitochondrial sensitivity to sensitizer BH3 domains found in FIG. 1B. The pro-lymphocytic murine FL5.12 cell line requires IL-3 to maintain survival. […]

[4] = test system: 2B4 cells; assay: 2B4 cell viability with dexamethasone by Annexin V; type: cell-based, murine; settings: 24 hours
Description: as §1

[5] = test system: CLL mitochondria; assay: Cytochrome c release from CLL mitochondria; type: biochemical, human; settings: peptides or compounds 100 μM
Description: Alternatively, mitochondria were purified from freshly isolated CLL cells and cell lines by mechanical disruption followed by differential centrifugation, as previously described (Letai et al., 2002). Mitochondrial suspensions were made at 0.5 mg protein/ml, except for the case of ABT-737 and negative control enantiomer treatments, where 0.1 mg/ml was used. Release of cytochrome c was determined by a comparison of cytochrome c in the pellet and supernatant quantitated by ELISA (R&D systems).
CLL mitochondria were incubated with BH3 peptides as well as ABT-737 and negative control enantiomer (FIG. 14). […] This pattern is diagnostic of mitochondrial BCL-2 dependence. […] Since the BH3 peptides in the sensitizer panel lack the ability to directly activate BAX and BAK, these experiments also implicated the presence of an activator molecule constitutively sequestered by BCL-2 in CLL.

[6] = target: T1, BCL-2:BIM complex (Homo sapiens, UniProt P10415); assay: BCL-2 immunoprecipitation from treated primary CLL cells; type: cell-based; settings: 100 nM, 24 hours
T1 construct: A BCL-2 antibody was used to immunoprecipitate BCL-2 from CLL lysates from four independent patient samples; endogenous in cells; host or cells: freshly isolated primary human CLL cells

[7] = test system: BAX; assay: BAX oligomerization in CLL cells; type: cell-based, human; settings: 4 hours
Description: 10^7 freshly isolated CLL cells were incubated with DMSO, 10 nM, 100 nM, or 1 μM ABT-737 or negative control enantiomer for 4 hours, % dead assessed by Annexin-V staining and FACS analysis, then treated with 0.3% saponin and 10 μM BMH for 30 minutes on ice. Cells were then lysed, loaded onto a 10% BISTris polyacrlyamide gel, transferred, and immunoblotted for BAX.

[8] = test system: SU-DHL4, SU-DHL6, SU-DHL8, SU-DHL 10; assay: Lymphoma cell line sensitivity to agents; type: cell-based; settings: four lymphoma cell lines compared
Description: Only cells that are dependent on BCL-2 for survival are predicted to respond to BCL-2 antagonists like ABT-737. […] To test this, cells were treated with vincristine.

[9] = test system: H146 and H1963; settings: in vitro and murine xenograft; cited from earlier work
[10] = target: BCL-2 (Homo sapiens, UniProt P10415); settings: cited from earlier work
[11] = target: BCL-XL (Homo sapiens, UniProt Q07817); settings: cited from earlier work
Sequence of BCL-XL (Q07817 whole entry, species assumed): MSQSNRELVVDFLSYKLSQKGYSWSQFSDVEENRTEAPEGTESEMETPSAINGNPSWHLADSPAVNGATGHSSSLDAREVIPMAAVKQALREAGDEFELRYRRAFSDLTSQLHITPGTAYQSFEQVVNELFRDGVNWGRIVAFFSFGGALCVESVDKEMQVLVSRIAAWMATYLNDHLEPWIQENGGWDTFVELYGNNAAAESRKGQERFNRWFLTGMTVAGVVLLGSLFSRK

T1 sequence (P10415 whole entry, one chain of several): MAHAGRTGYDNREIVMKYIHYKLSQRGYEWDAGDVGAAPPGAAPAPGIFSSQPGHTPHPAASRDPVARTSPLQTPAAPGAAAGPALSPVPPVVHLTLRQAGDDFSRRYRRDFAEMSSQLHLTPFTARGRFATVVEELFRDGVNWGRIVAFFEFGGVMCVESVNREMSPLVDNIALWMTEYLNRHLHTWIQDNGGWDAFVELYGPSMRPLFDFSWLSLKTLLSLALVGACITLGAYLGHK
Sequence of BCL-2 (P10415 whole entry, species assumed): as the sequence (P10415 whole entry, one chain of several) above

CN(C)CC[C@H](CSc1ccccc1)Nc1ccc(S(=O)(=O)NC(=O)c2ccc(N3CCN(Cc4ccccc4-c4ccc(Cl)cc4)CC3)cc2)cc1[N+](=O)[O-] [ABT-737]
EC50 ([1]; CLL cells of one patient per row (V1-V24), read-out: EC50 ABT-737): 3.6 nM and 2.1 nM and 3.1 nM and 1.9 nM and 4.1 nM and 8.7 nM and 5.8 nM and 6 nM and 3.3 nM and 6.4 nM and 2.9 nM and 9.4 nM and 2.3 nM and 4.8 nM and 4 nM and 7.4 nM and 6.1 nM and 7 nM and 3.2 nM and 3.5 nM
EC50 ([1]; Homo sapiens, CLL cell, 48 h, twenty-four CLL samples, read-out: mean EC50, apoptosis of CLL cells): 4.5 nM
EC50 ([1]; Homo sapiens, CLL cell, 48 h, twenty-four CLL samples, read-out: range of EC50 over CLL samples): 1.9 to 9.4 nM
EC50 [2]: > 1000 nM
toxicity ([3]; IL-3 replete wt FL5.12 cells): non-toxic
cell death ([3]; IL-3 starved FL5.12-BCL-2 cells, 24 hours): induced cell death in the IL-3 starved
effect on cell survival ([4]; BCL-2-protected dexamethasone-treated 2B4 cells): very sensitive to ABT-737
effect on cell survival ([4]; MCL-1-protected dexamethasone-treated 2B4 cells): has no effect
cytochrome c release [5]: also induced cytochrome c release
amount of BIM bound to BCL-2 [6]: causes a dramatic reduction in the amount of BIM bound to BCL-2
oligomerization of BAX [7]: oligomerization of BAX within four hours
cell sensitivity to the agent [8]: BH3 profiling accurately predicted response to ABT-737
sensitivity of H146 and H1963 to treatment [9]: sensitive to treatment with ABT-737 in vitro and in an in vivo murine xenograft model
affinity to BCL-2 [10]: sub-nanomolar range
affinity to BCL-XL [11]: sub-nanomolar range

From patent US11215608B2, “Methods of determining cellular chemosensitivity” (Dana-Farber Cancer Institute, Inc., priority 2006, dated 2022)
